# Experimental data as given in US20230183239A1, “ECTONUCLEOTIDE PYROPHOSPHATASE-PHOSPHODIESTERASE 1 (ENPP-1) INHIBITORS AND USES THEREOF” (AbbVie Inc., priority 2017, published 2023).
# How the values were obtained:
# Format in all cases: biochemical
# ENPP1 [1] = biological target: T1, ENPP1 (Homo sapiens, UniProt P22413); assay: Indirect quantitation of 2',3'-cGAMP hydrolysis (AMP-Glo Assay kit); settings: cGAMP substrate; Ki from IC50 by Cheng-Prusoff; read-out: ENPP1 Inhibition -cGAMP: Ki
# T1 sequence (P22413 1-925): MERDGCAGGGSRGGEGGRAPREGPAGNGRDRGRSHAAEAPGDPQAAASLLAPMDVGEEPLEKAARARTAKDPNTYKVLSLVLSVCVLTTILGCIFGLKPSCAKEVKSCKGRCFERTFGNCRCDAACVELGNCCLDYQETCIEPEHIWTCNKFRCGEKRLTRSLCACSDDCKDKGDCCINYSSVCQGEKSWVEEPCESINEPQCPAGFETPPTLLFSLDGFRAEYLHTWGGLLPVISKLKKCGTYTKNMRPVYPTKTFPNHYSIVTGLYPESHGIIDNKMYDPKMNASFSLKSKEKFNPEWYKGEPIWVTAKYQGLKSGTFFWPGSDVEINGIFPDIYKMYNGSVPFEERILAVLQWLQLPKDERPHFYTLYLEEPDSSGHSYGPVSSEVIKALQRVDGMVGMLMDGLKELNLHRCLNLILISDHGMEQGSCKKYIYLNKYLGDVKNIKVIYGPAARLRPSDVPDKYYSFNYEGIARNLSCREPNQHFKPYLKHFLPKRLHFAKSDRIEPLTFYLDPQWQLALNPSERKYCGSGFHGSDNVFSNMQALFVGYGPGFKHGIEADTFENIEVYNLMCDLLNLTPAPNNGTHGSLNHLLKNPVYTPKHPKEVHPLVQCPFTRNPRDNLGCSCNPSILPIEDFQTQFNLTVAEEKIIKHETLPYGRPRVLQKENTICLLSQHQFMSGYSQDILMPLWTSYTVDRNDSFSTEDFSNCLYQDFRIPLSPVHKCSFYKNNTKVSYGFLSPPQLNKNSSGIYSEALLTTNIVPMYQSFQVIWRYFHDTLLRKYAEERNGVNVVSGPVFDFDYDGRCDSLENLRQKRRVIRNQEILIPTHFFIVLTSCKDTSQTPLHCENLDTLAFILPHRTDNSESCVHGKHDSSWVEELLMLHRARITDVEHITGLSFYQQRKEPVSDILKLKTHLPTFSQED
# ENPP1 [2] = biological target: T1, ENPP1; assay: ENPP1 enzyme assay with AMP-pNP substrate (hydrolysis of ATP analog); settings: AMP-pNP substrate (ATP analog); Ki from IC50 by Cheng-Prusoff; read-out: ENPP1 Inhibition _AMP-pNP: Ki
# Method in brief: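 Reactions ran 20 min at 37 °C, pH 8.5 Tris buffer with NaCl, CaCl2, ZnCl2, using 300 µM AMP-pNP and 60 ng/well recombinant human ENPP1; inhibitor range 10 µM–30 pM, duplicates.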
# ENPP1 [3] = biological target: T1, ENPP1; assay: Substrate selectivity ratio, inhibition of cGAMP hydrolysis versus ATP hydrolysis; settings: ratio Ki AMP-pNP / Ki cGAMP
# Protocol: The selectivity ratios for inhibition of cGAMP hydrolysis versus ATP hydrolysis were then calculated as follows: […]
Ki (ENPP1 [1]),Ki (ENPP1 [2]),Substrate Selectivity: Ki_AMP-pNP/Ki_cGAMP (ENPP1 [3]),SMILES
< 100 nM,< 100 nM,38.7,"COc1ccc2c(N3CCC4(CC3)CCN(S(N)(=O)=O)C4)ncnc2c1 [Example 65, 8-(7-methoxyquinazolin-4-yl)-2,8-diazaspiro [4.5] decane-2-sulfonamide]"
100 to 1000 nM,> 1000 nM,> 14.6,"COc1cc2ncnc(N3CCC(CCC(N)=O)CC3)c2cc1OC [Example 222, 3-(1-(6,7-dimethoxyquinazolin-4-yl)piperidin-4-yl)propanamide]"
< 100 nM,100 to 1000 nM,>103,"COc1ccc2c(Oc3ccc4c(c3)CCN4S(N)(=O)=O)ccnc2c1 [Example 404, 5-((7-methoxyquinolin-4-yl)oxy)indoline-1-sulfonamide]"
< 100 nM,100 to 1000 nM,21.9,"COc1cc2ncnc(-c3ccc4c(c3)CC(NS(N)(=O)=O)C4)c2cc1OC (stereo not drawn) [Example 122, N-(5-(6,7-dimethoxyquinazolin-4-yl)-2,3-dihydro-1H-inden-2-yl)sulfamide]"
< 100 nM,100 to 1000 nM,30.7,"COc1cc2nccc(N3CCc4cc(NS(N)(=O)=O)ccc43)c2cc1OC [Example 281, N-(1-(6,7-dimethoxyquinolin-4-yl)indolin-5-yl)sulfamide]"
< 100 nM,> 1000 nM,>95.8,"COc1cc2ncc(C(N)=O)c(N3CCC(CCNS(N)(=O)=O)CC3)c2cc1OC [Example 19, 6,7-dimethoxy-4-(4-(2-(sulfamoylamino)ethyl)piperidin-1-yl)quinoline-3-carboxamide]"
100 to 1000 nM,> 1000 nM,>119,"COc1ccc2ncc(C#N)c(-c3ccc(CN(C4CC4)S(N)(=O)=O)cc3)c2c1 [Example 294, N-(4-(3-cyano-6-methoxyquinolin-4-yl)benzyl)-N-cyclopropylsulfamide]"
< 100 nM,> 1000 nM,>35.9,"COc1ccc2c(Oc3ccc4c(c3)CCCN4S(N)(=O)=O)ccnc2c1 [Example 319, 6-((7-methoxyquinolin-4-yl)oxy)-3,4-dihydroquinoline-1(2H)-sulfonamide]"
< 100 nM,100 to 1000 nM,16.3,"NS(=O)(=O)N1CCC2(CCN(c3ncnc4ccccc34)CC2)C1 [Example 158, 8-(quinazolin-4-yl)-2,8-diazaspiro [4.5] decane-2-sulfonamide]"
100 to 1000 nM,> 1000 nM,67.3,"COc1cc2c(NCc3ccc(S(N)(=O)=O)cc3)ncnc2cn1 [Example 247, 4-(((6-methoxypyrido[3,4-d]pyrimidin-4-yl)amino)methyl)benzenesulfonamide]"
< 100 nM,< 100 nM,11.9,"COc1cc2ncc(C#N)c(N3CCC4(CC3)CCN(S(N)(=O)=O)C4)c2cc1OC [Example 64, 8-(3-cyano-6,7-dimethoxyquinolin-4-yl)-2,8-diazaspiro [4.5] decane-2-sulfonamide]"
< 100 nM,> 1000 nM,>533,"COc1cc2ncc(C#N)c(-c3ccc4c(c3)CN(S(N)(=O)=O)CC4)c2cc1F [Example 316, 7-(3-cyano-6-fluoro-7-methoxyquinolin-4-yl)-3,4-dihydroisoquinoline-2(1H)-sulfonamide]"
100 to 1000 nM,> 1000 nM,>158,"NS(=O)(=O)N1CCc2ccc(-c3ncnc4ccccc34)cc2C1 [Example 150, 7-(quinazolin-4-yl)-3,4-dihydroisoquinoline-2(1H)-sulfonamide]"
100 to 1000 nM,> 1000 nM,> 18.2,"COc1cc2ncn(-c3ccc(CCNS(N)(=O)=O)cc3)c2cc1OC [Example 217, N-(4-(5,6-dimethoxy-1H-benzo[d]imidazol-1-yl)phenethyl)sulfamide]"
< 100 nM,100 to 1000 nM,29.5,"COc1ccc2c(-c3ccc(CNS(N)(=O)=O)cc3)ncnc2c1 [Example 226, N-(4-(7-methoxyquinazolin-4-yl)benzyl)sulfamide]"
< 100 nM,< 100 nM,21.5,"COc1cc2ncc(-c3ccc4c(c3)CN(S(N)(=O)=O)CC4)c(Cl)c2cc1OC [Example 260, 7-(4-chloro-6,7-dimethoxyquinolin-3-yl)-3,4-dihydroisoquinoline-2(1H)-sulfonamide]"
< 100 nM,100 to 1000 nM,43,"COc1ccc2nccc(N3CCC4(CC3)CCN(S(N)(=O)=O)C4)c2c1 [Example 364, 8-(6-methoxyquinolin-4-yl)-2,8-diazaspiro[4.5]decane-2-sulfonamide]"
< 100 nM,> 1000 nM,>35,"COc1cc2nccc(-c3ccc4c(c3)CCN(S(N)(=O)=O)C4)c2cc1OC [Example 367, 6-(6,7-dimethoxyquinolin-4-yl)-3,4-dihydroisoquinoline-2(1H)-sulfonamide]"
< 100 nM,> 1000 nM,>87.7,"COc1cc2ncnc(NC(c3ccc(NS(N)(=O)=O)cc3)C3CC3)c2cc1OC (stereo not drawn) [Example 246, N-(4-(cyclopropyl((6,7-dimethoxyquinazolin-4-yl)amino)methyl)phenyl)sulfamide]"
< 100 nM,< 100 nM,12.2,"COc1cc2ncc(C#N)c(-c3ccc4c(c3)CN(S(N)(=O)=O)CC4)c2cc1OC [Example 149, 7-(3-cyano-6,7-dimethoxyquinolin-4-yl)-3,4-dihydroisoquinoline-2(1H)-sulfonamide]"
< 100 nM,< 100 nM,54.8,"COc1cc2ncnc(N3CCC(CCC(=O)NO)CC3)c2cc1OC [Example 159, 3-(1-(6,7-dimethoxyquinazolin-4-yl)piperidin-4-yl)-N-hydroxypropanamide]"
< 100 nM,> 1000 nM,>562,"COc1cc2nccc(Oc3ccc(NS(N)(=O)=O)cc3)c2cc1OC [Example 125, N-(4-((6,7-dimethoxyquinolin-4-yl)oxy)phenyl)sulfamide]"
< 100 nM,< 100 nM,41.6,"COc1cc2ncnc(NCc3ccc(S(N)(=O)=O)cc3)c2cc1F [Example 259, 4-(((6-fluoro-7-methoxyquinazolin-4-yl)amino)methyl)benzenesulfonamide]"
< 100 nM,100 to 1000 nM,>13.0,"COc1ccc2c(Sc3ccc(NS(N)(=O)=O)cc3)ccnc2c1 [Example 302, N-(4-((7-methoxyquinolin-4-yl)thio)phenyl)sulfamide]"

SMILES,Ki (ENPP1 [1]),Ki (ENPP1 [2]),Substrate Selectivity: Ki_AMP-pNP/Ki_cGAMP (ENPP1 [3])
"COc1cc2ncnc(N3CCC4(CCNC4)CC3)c2cc1OC [Example 274, 8-(6,7-dimethoxyquinazolin-4-yl)-2,8-diazaspiro[4.5]decane]",100 to 1000 nM,> 1000 nM,>6.4
